# Data published in BindingDB's records for doi:10.1016/j.ejmech.2019.05.010 (Queensland University of Technology, 2019).
# Biological target: Genome polyprotein (Dengue virus type 2 (strain Thailand/16681/1984), UniProt P29990)
# Experiment: Inhibition of DENV2 NS2B-NS3 serine protease expressed in human Huh7 cells after 3 days by luciferase reporter gene assay
smiles,measurement,value
CC(=O)O[C@H]1CC(C)(C)C(=C=C/C(C)=C/C=C/C=C/C=C(C)/C=C2C=C(/C=C/[C@@]34O[C@]3(C)C[C@@H](O)CC4(C)C)C(=O)O/2)[C@](C)(O)C1,EC50,4.5 µM
